Laboratory results as given in ChEMBL document CHEMBL4808204, “Discovery of non-proteinogenic amino acids inhibiting biofilm formation by S. aureus and methicillin-resistant S. aureus” (Bioorg Med Chem Lett, 2021).
Active and inactive are the calls of the source. The rule behind the calls is not given here.

Key:
Staphylococcus aureus [1] = assay: Antibiofilm activity against Staphylococcus aureus assessed as biofilm formation at 100 uM measured by crystal violet staining based microplate reader assay; assay type: functional
Staphylococcus aureus [2] = assay: Antibacterial activity in Staphylococcus aureus assessed as bacterial growth rate at 100 uM measured by UV absorbance based analysis; assay type: functional
Staphylococcus aureus [3] = assay: Antibiofilm activity against Staphylococcus aureus assessed as inhibition of biofilm formation at 500 uM; assay type: functional
Staphylococcus aureus [4] = assay: Antibiofilm activity against Staphylococcus aureus assessed as inhibition of biofilm formation at 100 uM; assay type: functional
Staphylococcus aureus [5] = assay: Antibiofilm activity against Staphylococcus aureus assessed as inhibition of biofilm formation at 10 uM measured by crystal violet staining based microplate reader assay; assay type: functional
Pseudomonas aeruginosa [6] = assay: Antibiofilm activity against Pseudomonas aeruginosa assessed as inhibition of biofilm formation at 100 uM measured by crystal violet staining based microplate reader assay; assay type: functional, organism-based
Streptococcus mutans = assay: Antibiofilm activity against Streptococcus mutans assessed as inhibition of biofilm formation at 1 to 100 uM by UV absorbance based analysis; assay type: functional, organism-based; settings: dose 1-100 µM
Escherichia coli = assay: Antibiofilm activity against Escherichia coli assessed as inhibition of biofilm formation at 1 to 100 uM by UV absorbance based analysis; assay type: functional, organism-based; settings: dose 1-100 µM
Acinetobacter baumannii = assay: Antibiofilm activity against Acinetobacter baumannii assessed as inhibition of biofilm formation at 1 to 100 uM by UV absorbance based analysis; assay type: functional, organism-based; settings: dose 1-100 µM
Staphylococcus aureus [7] = assay: Antibiofilm activity against Staphylococcus aureus assessed as inhibition of biofilm formation by UV absorbance based analysis; assay type: functional, organism-based; settings: dose 1-100 µM
Pseudomonas aeruginosa [8] = assay: Antibiofilm activity against Pseudomonas aeruginosa assessed as inhibition of biofilm formation at 1 to 100 uM by UV absorbance based analysis; assay type: functional, organism-based; settings: dose 1-100 µM
Staphylococcus aureus [9] = assay: Antibiofilm activity against methicillin-resistant Staphylococcus aureus assessed as inhibition of biofilm formation by UV absorbance based analysis; assay type: functional, organism-based; settings: dose 1-100 µM
Staphylococcus aureus [10] = assay: Antibiofilm activity against Staphylococcus aureus assessed as inhibition of attachment of biofilm on the bacterial surface at 1 to 100 uM; assay type: functional, organism-based; settings: dose 1-100 µM
HeLa = assay: Cytotoxicity against human HeLa cells at 1 to 100 uM by WST8 assay; assay type: cell-based; settings: dose 1-100 µM
Listeria monocytogenes = assay: Antibiofilm activity against Listeria monocytogenes assessed as inhibition of biofilm formation by UV absorbance based analysis; assay type: functional, organism-based; settings: dose 1-100 µM
[11] = tested on: Staphylococcus epidermidis; assay: Antibiofilm activity against Staphylococcus epidermidis assessed as inhibition of biofilm formation at 1 to 100 uM by UV absorbance based analysis; assay type: functional, organism-based; settings: dose 1-100 µM
Staphylococcus aureus [12] = assay: Antibiofilm activity against Staphylococcus aureus assessed as inhibition of biofilm formation at 60 uM; assay type: functional
Pseudomonas aeruginosa [13] = assay: Antibiofilm activity against Pseudomonas aeruginosa assessed as inhibition of biofilm formation at 100 uM; assay type: functional
Staphylococcus aureus [14] = assay: Antibiofilm activity against Staphylococcus aureus assessed as inhibition of biofilm formation at 66 uM; assay type: functional

| SMILES | Biofilm formation (Staphylococcus aureus [1]) [%] | Activity (Staphylococcus aureus [2]) [%] | further results |
| --- | --- | --- | --- |
| NC(Cc1cc(Br)c(O)c(Br)c1)C(=O)O (configuration not stated) | 6 | 72 |  |
| OCc1ccc(O)c(O)c1 | 107 | 104 |  |
| CCCCCCCCCCCCCC(=O)NCC(=O)O | 4 | 38 |  |
| N[C@H](Cc1ccccc1)C(=O)O [D-PHENYLALANINE] |  |  | inhibition at 500 µM (Staphylococcus aureus [3]): > 70% |
| O=C(O)[C@H]1CCCN1 [D-PROLINE] |  |  | inhibition at 500 µM (Staphylococcus aureus [3]): > 70% |
| NC(C(=O)O)C(O)c1ccccc1 (configuration not stated) | 101 | 97 |  |
| Oc1ccccc1O [CATECHOL] | 84 | 106 |  |
| N[C@H](Cc1ccc(O)cc1)C(=O)O | 85 | 119 | inhibition at 100 µM (Staphylococcus aureus [4]): > 70% |
| NC(Cc1cc(I)c(Oc2ccc(O)c(I)c2)c(I)c1)C(=O)[O-].[Na+] (configuration not stated) | 2 | 18 |  |
| NCCc1ccc(O)c(O)c1 [DOPAMINE] |  | 98 | Activity (Staphylococcus aureus [1]): 79% |
| NC(C(=O)O)C(O)c1ccc(O)c(O)c1 (configuration not stated) | 12 | 104 | inhibition at 10 µM (Staphylococcus aureus [5]): 53%; Activity (Pseudomonas aeruginosa [6]): inactive; Activity (Streptococcus mutans): inactive; Activity (Escherichia coli): inactive; Activity (Acinetobacter baumannii): inactive; Activity (Staphylococcus aureus [7]): Dose-Dependent Effect; Activity (Pseudomonas aeruginosa [8]): inactive; Activity (Staphylococcus aureus [9]): Dose-Dependent Effect; Activity (Staphylococcus aureus [10]): inactive; Activity (HeLa): Non-Toxic; Activity (Listeria monocytogenes): Dose-Dependent Effect; Activity [11]: inactive |
| NC(Cc1cc(I)c(O)c(I)c1)C(=O)O (configuration not stated) | 5 | 26 |  |
| NC(Cc1ccc(Oc2ccc(O)cc2)cc1)C(=O)O (configuration not stated) | 15 | 106 |  |
| N[C@H](CO)C(=O)O [(D)-SERINE] | 83 | 85 |  |
| N[C@@H](Cc1ccc(O)c([N+](=O)[O-])c1)C(=O)O | 16 | 80 |  |
| CNC[C@H](O)c1ccc(O)c(O)c1 [EPINEPHRINE] |  | 79 | Activity (Staphylococcus aureus [1]): 77% |
| N[C@@H](Cc1ccc(F)c(F)c1)C(=O)O | 31 | 145 |  |
| N[C@@H](Cc1ccc(O)c(O)c1)C(=O)O [LEVODOPA] | 32 | 84 |  |
| CC(C)c1ccc2c(c1)CC[C@H]1[C@](C)(C(=O)O)CCC[C@]21C [DEHYDROABIETIC ACID] |  |  | inhibition at 60 µM (Staphylococcus aureus [12]): 90% |
| O=c1c(O)c(-c2ccc(O)c(O)c2)oc2cc(O)cc(O)c12 [QUERCETIN] |  |  | inhibition at 100 µM (Pseudomonas aeruginosa [13]): > 70%; inhibition at 66 µM (Staphylococcus aureus [14]): > 70% |
| N[C@@H](Cc1ccc(Cl)c(Cl)c1)C(=O)O | 46 | 117 |  |
